Results: patent publication US4247712A, “Preservation of aqueous systems with 2-chloro-3-oxobutyramide derivatives” (Givaudan Corporation, priority 1979, dated 1981)
In brackets after ≈: the same amount, converted by molar mass.

What was measured:
Type in all cases: cell-based
[1] = system: Pseudomonas aeruginosa; experiment: Utility as a cosmetic preservative (cosmetic lotion); details: weekly reinoculation
Experimental: (§1) The 2-Chloro-3-oxobutyramide derivatives are effective cosmetic preservatives. Two-fold serial dilutions of 6% solutions of the 2-haloacetoacetic acid derivatives in dimethylformamide were added to a cosmetic lotion of the following formulation: |Stearic acid 1.4 g |Arlacel 60 (sorbitan |monostearate) 0.7 g |Tween 20 Polyoxethylene |(20) sorbitan |monostearate 1.6 g |Distilled water 94.0 g The lotions were inoculated with both Pseudomonas aeruginosa and Aspergillus niger and incubated at 28° C. At weekly intervals, the lotions were examined for microorganisms by conventional streak-plate methods or by macroscopic observation. The lotions were then reinoculated with the test organisms and reincubated.

[2] = system: Aspergillus niger; experiment: as above; details: weekly reinoculation
Experimental: as §1

[3] = system: Aureobasidium pullulans; experiment: General antimicrobial activity, 5-fold serial dilution test in agar (MIC); details: 168 h, 28° C., seven days, growth only at lower concentration of range, read-out: minimum inhibitory concentration (MIC), F4
Experimental: (§2) General antibacterial and antifungal activity was evaluated by a 5-fold serial dilution test in agar. In this test, compounds were prepared as 6% solutions in dimethylformamide or ethanol. The 6% solution was then 5-fold serially diluted in test tubes to give the desired concentrations when mixed with agar and poured into sterile Petri dishes. Tryptone glucose extract agar was used for the bacterial testing; mildew glucose agar for the fungal testing. The bacterial plates were spot inoculated with 24-hour nutrient broth cultures and incubated at 37° C. for 48 hours. The fungal plates were spot inoculated with spore suspensions and incubated at 28° C. for seven days. At the end of the incubation periods, all plates were examined for growth. The minimum inhibitory concentration (MIC) for each organism is expressed in Table I. In the ranges presented, growth is observed only at the lower concentration.
(§3) The activity is presented in Tabular Form (Table I) using the following key.

[4] = system: Aspergillus oryzae; experiment: as above; details: 168 h, 28° C., seven days, growth only at lower concentration of range, read-out: minimum inhibitory concentration (MIC), F2
Experimental: as §2, §3

[5] = system: Staphylococcus aureus; experiment: as above; details: 37° C., 48 hours, growth only at lower concentration of range, read-out: minimum inhibitory concentration (MIC), B1
Experimental: as §2, §3

[6] = system: Escherichia coli; experiment: as above; details: 37° C., 48 hours, growth only at lower concentration of range, read-out: minimum inhibitory concentration (MIC), B2
Experimental: as §2, §3

[7] = system: Bacillus subtilis; experiment: as above; details: 37° C., 48 hours, growth only at lower concentration of range, read-out: minimum inhibitory concentration (MIC), B5
Experimental: as §2, §3

[8] = system: Proteus vulgaris; experiment: as above; details: 37° C., 48 hours, growth only at lower concentration of range, read-out: minimum inhibitory concentration (MIC), B4
Experimental: as §2, §3

[9] = system: Penicillium piscarium; experiment: as above; details: 168 h, 28° C., seven days, growth only at lower concentration of range, read-out: minimum inhibitory concentration (MIC), F3
Experimental: as §2, §3

[10] = system: Pseudomonas aeruginosa; experiment: as above; details: 37° C., 48 hours, growth only at lower concentration of range, read-out: minimum inhibitory concentration (MIC), B3
Experimental: as §2, §3

[11] = system: Aspergillus niger; experiment: as above; details: 168 h, 28° C., seven days, growth only at lower concentration of range, read-out: minimum inhibitory concentration (MIC), F1
Experimental: as §2, §3

[12] = system: Pseudomonas aeruginosa; experiment: Utility in water and oil emulsions (3.3% cutting oil emulsions); details: 28° C., weekly reinoculation, read-out: Minimum Inhibitory Concentration Range
Experimental: The utility of the 2-chloro-3-oxobutyramide derivatives in water and oil emulsions is illustrated below using a commercially available cutting oil. In running these tests, two-fold serial dilutions of 6% solutions of the compound in dimethylformamide was added to 3.3% cutting oil emulsions. The emulsions were prepared by diluting with water a commercially available cutting oil concentrate. The emulsions were inoculated with a culture of Pseudomonas aeruginosa and incubated at 28° C. on a rotary shaker. At weekly intervals, the emulsions were examined for bacteria by conventional streak-plate methods. The emulsions were then reinoculated with Pseudomonas aeruginosa and reincubated. […] indicate the activity range for that compound.

MIC [3]: 76.8 to 384 µg/mL (≈ 370 to 1850 µM)
MIC [4]: 76.8 to 384 µg/mL (≈ 370 to 1850 µM)
MIC [5]: 76.8 to 384 µg/mL (≈ 370 to 1850 µM)
MIC [6]: 76.8 to 384 µg/mL (≈ 370 to 1850 µM)
MIC [7]: 76.8 to 384 µg/mL (≈ 370 to 1850 µM)
MIC [8]: 76.8 to 384 µg/mL (≈ 370 to 1850 µM)
MIC [9]: 76.8 to 384 µg/mL (≈ 370 to 1850 µM)
MIC [10]: 76.8 to 384 µg/mL (≈ 370 to 1850 µM)
MIC [11]: 76.8 to 384 µg/mL (≈ 370 to 1850 µM)
MIC ([12]; Week 1, 3.3% cutting oil emulsion): 32 to 63 µg/mL (≈ 154 to 303 µM)
MIC ([12]; Week 2, 3.3% cutting oil emulsion): 63 to 125 µg/mL (≈ 303 to 602 µM)
MIC ([12]; Week 3, 3.3% cutting oil emulsion): 63 to 125 µg/mL (≈ 303 to 602 µM)
MIC ([12]; Week 4, 3.3% cutting oil emulsion): 125 to 500 µg/mL (≈ 602 to 2410 µM)
Structure (SMILES): CCOC(=O)NC(=O)C(Cl)C(C)=O (stereo not drawn) [R1=H, R2=COOC2 H5, N-Carboethoxy-2-chloroacetoacetamide]
minimum inhibitory concentration effective in preventing microbial growth ([1]; Week 1, 28° C.): 5 (63-125 mcg/gm)
minimum inhibitory concentration effective in preventing microbial growth ([1]; Week 2, 28° C.): 4 (125-250 mcg/gm)
minimum inhibitory concentration effective in preventing microbial growth ([1]; Week 3, 28° C.): 4 (125-250 mcg/gm)
minimum inhibitory concentration effective in preventing microbial growth ([1]; Week 4, 28° C.): 4 (125-250 mcg/gm)
minimum inhibitory concentration effective in preventing microbial growth ([2]; Week 1, 28° C.): 4 (125-250 mcg/gm)
minimum inhibitory concentration effective in preventing microbial growth ([2]; Week 2, 28° C.): 3 (250-500 mcg/gm)
minimum inhibitory concentration effective in preventing microbial growth ([2]; Week 3, 28° C.): 3 (250-500 mcg/gm)
minimum inhibitory concentration effective in preventing microbial growth ([2]; Week 4, 28° C.): 3 (250-500 mcg/gm)
